Laboratory results: paper PMC3058535 (International Journal of Nanomedicine, 2011)

molecular target: integrin αvβ3 (Homo sapiens, UniProt P05106+P06756); assay: Competitive ELISA vs NS–RGDfK; assay type: binding; conditions: NS–RGDfK 0.5 OD; starting 50 μM

Row | Compound | competition with NS–RGDfK for binding to integrin αvβ3
1 | CC(C)(CN)CNC(=O)NCCS(=O)(=O)N[C@@H](CNC(=O)c1ccc(OCCNC2=NCCCN2)cc1)C(=O)O.Cl [IAC, 4-[2-(3,4,5,6-tetrahydropyrimidin-2-ylamino)-ethyloxy]benzoyl-2-(S)-[N-(3-aminoneopenta-1-carbamyl)]-aminoethylsulfonylamino-h-alanine hydrochloride] | did compete with NS–RGDfK for binding to the integrin
2 | N=C(N)NCCC[C@@H]1NC(=O)[C@H](CCCCN)NC(=O)[C@@H](Cc2ccccc2)NC(=O)[C@H](CC(=O)O)NC(=O)CNC1=O [RGDfK, cyclo(Arg-Gly-Asp-D-Phe-Lys)] | did compete with NS–RGDfK for binding to the integrin
3 | cyclo-(Arg-Ala-Asp- D-Phe-Lys) (head to tail) [RADfK] | did not have any detectable competition with NS–RGDfK
